How the values were obtained:
[1] = test system: subjects with diagnosed hearing loss; test: Double blind placebo controlled pilot trial of neramexane for treatment of hearing loss (Example 1); format: in vivo, human; details: neramexane mesylate up to 75 mg/day, modified release tablets, 16 weeks, versus placebo
Experimental: A hearing threshold level may be defined as the average of the pure tone hearing threshold levels at testing frequencies of 0.25, 0.5, 1, 2 and 4 kHz.
The primary objective of this study is to investigate the safety and efficacy of neramexane mesylate at daily doses of up to 75 mg in the treatment of hearing loss in comparison to placebo.
In order to be eligible to participate in the study, patients must meet the following criteria: • Male or female subjects aged between 18 and 80 years with diagnosed hearing loss of at least mild degree • Signed written informed consent • Female subjects must be at least 2 years post-menopausal or surgically sterile. Women of childbearing potential have to agree to use at least one effective method of contraception.
Visit 1 (screening): After signing the consent form, the subject undergoes a neurological and otological evaluation. […] Patient eligibility for study is evaluated via a check of inclusion/exclusion criteria.
Visit 2 (baseline): The subjects are asked about adverse events and changes in concomitant medication/disease, which events/changes are documented. Subject is evaluated for study eligibility based on a review of the inclusion/exclusion criteria. […]
Primary Outcome • Change from baseline in hearing threshold level of left/right ear (dB) calculated as average of the pure tone hearing level threshold levels at 0.25, 0.5, 1, 2 and 4 kHz. […]

[2] = test system: patients suffering from persistent, subjective uni- or bilateral tinnitus; test: Double-blind, multicenter, randomized, placebo-controlled, parallel-group study in tinnitus patients; pure tone audiogram (Example 2); format: in vivo, human; details: 50 mg-dose group (25 mg immediate release tablets twice daily), after 16 weeks treatment, compared to placebo; FIG. 1
Experimental: Participants received either neramexane mesylate (e.g. 50 mg, as 25 mg immediate release tablets given twice daily) or placebo twice daily for 16 weeks. Neramexane mesylate was uptitrated in weekly steps of 12.5 or 25 mg during a 4-week uptitration period preceding the fixed-dose 12-week treatment period. Treatment was followed by a four week follow-up period.

Question: CC1(C)CC(C)(C)CC(C)(N)C1 [neramexane, 1-amino-1,3,3,5,5-pentamethylcyclohexane] was tested. Which “Secondary outcomes: high frequency hearing threshold, individual frequencies, responders, patient-reported outcome, hearing impairment grade” value [1] did it give?
Answer: improvement

Question: What about the “Primary outcomes: change from baseline in hearing threshold level of left/right ear” value ([1]; average of pure tone thresholds at 0.25, 0.5, 1, 2 and 4 kHz) of the same compound?
Answer: improvement

Question: And the “Individual frequencies (hearing thresholds) on a pure tone audiogram (air conduction), secondary efficacy analysis” value [2]?
Answer: trend for a modest treatment effect compared to placebo

Source: patent publication US9468610B2, “1-aminocyclohexane derivatives for the treatment of hearing loss” (MERZ PHARMA GmbH & CO. KGaA, priority 2007, dated 2016)
